Measurements: ChEMBL document CHEMBL1129725, “Synthesis and antitumor activity of 7-substituted 20(RS)-camptothecin analogues” (Bioorg Med Chem Lett, 1996)

Experiments:
Assay type in all cases: functional, cell-based
[1] = test system: KATO III stomach cancer cell line; assay: Cytotoxicity against KATO-III human tumor cell lines
A 172 = assay: Cytotoxicity against A-172 human tumor cell lines
L1210 = assay: Cytotoxicity against L1210 tumor cell lines in mice; settings: Mus musculus
Caov-3 cell line = assay: Cytotoxicity against CAOV-3 human tumor cell lines
DLD-1 = assay: Cytotoxicity against DLD-1 human tumor cell lines

Structure (SMILES)	IC50 [1]	IC50 (A 172)	IC50 (L1210)	IC50 (Caov-3 cell line)	IC50 (DLD-1)
CCC1(O)C(=O)OCc2c1cc1n(c2=O)Cc2c-1nc1ccccc1c2CCN(CCO)C(=O)OCc1ccccc1 (stereo not given)	13.8 µM	1.92 µM	2.9 µM	1.14 µM	9.72 µM
CCC1(O)C(=O)OCc2c1cc1n(c2=O)Cc2c-1nc1ccccc1c2CCN(CCOC(C)=O)C(=O)OCc1ccccc1 (stereo not given)	16.6 µM	18.6 µM	9.08 µM	4.48 µM	15.8 µM
CCC1(O)C(=O)OCc2c1cc1n(c2=O)Cc2c-1nc1ccccc1c2CCN1CCCCC1 (stereo not given)	> 100 µM	51.1 µM	> 100 µM	> 100 µM	> 100 µM
CCCN(CCc1c2c(nc3ccccc13)-c1cc3c(c(=O)n1C2)COC(=O)C3(O)CC)C(=O)OCc1ccccc1 (stereo not given)	0.51 µM	2.33 µM	1.09 µM	0.14 µM	0.55 µM
CCNCCc1c2c(nc3ccccc13)-c1cc3c(c(=O)n1C2)COC(=O)C3(O)CC (stereo not given)	0.36 µM	0.085 µM	0.64 µM	0.2 µM	0.44 µM
CCC1(O)C(=O)OCc2c1cc1n(c2=O)Cc2c-1nc1ccccc1c2CCN1CCOCC1 (stereo not given)	82 µM	81.8 µM	> 100 µM	42.2 µM	> 100 µM
CCC1(O)C(=O)OCc2c1cc1n(c2=O)Cc2c-1nc1ccccc1c2CCNCc1ccccc1 (stereo not given)	0.85 µM	0.28 µM	4.03 µM	0.17 µM	0.31 µM
CCC1(O)C(=O)OCc2c1cc1n(c2=O)Cc2c-1nc1ccccc1c2CCNCCO (stereo not given)	47.8 µM	23.3 µM	13 µM	4.63 µM	8.79 µM
CCC1(O)C(=O)OCc2c1cc1n(c2=O)Cc2c-1nc1ccccc1c2CCN(C(=O)OCc1ccccc1)C(C)C (stereo not given)	1.85 µM	0.95 µM	1.29 µM	0.041 µM	1.83 µM
CCC1(O)C(=O)OCc2c1cc1n(c2=O)Cc2c-1nc1ccccc1c2CCNCCOC(C)=O (stereo not given)	0.82 µM	0.74 µM	4.36 µM	0.88 µM	3.48 µM
CCN(CCc1c2c(nc3cc4c(cc13)OCO4)-c1cc3c(c(=O)n1C2)COC(=O)C3(O)CC)C(=O)OCc1ccccc1 (stereo not given)	23.1 µM	2.83 µM	3.52 µM	1.74 µM	24.2 µM
CCC1(O)C(=O)OCc2c1cc1n(c2=O)Cc2c-1nc1ccccc1c2CCN1CCCC1 (stereo not given)	> 100 µM	> 100 µM	> 100 µM	> 100 µM	> 100 µM
CCC1(O)C(=O)OCc2c1cc1n(c2=O)Cc2c-1nc1ccccc1c2CCN(Cc1ccccc1)C(=O)OCc1ccccc1 (stereo not given)	14 µM	1.18 µM	0.7 µM	1.97 µM	1.06 µM
CCC1(O)C(=O)OCc2c1cc1n(c2=O)Cc2c-1nc1ccccc1c2CCNC(C)C (stereo not given)	0.04 µM	0.11 µM	0.13 µM	0.041 µM	0.11 µM
CC[C@@]1(O)C(=O)OCc2c1cc1n(c2=O)Cc2cc3ccccc3nc2-1 [CAMPTOTHECIN]	1.17 µM	0.14 µM	0.18 µM	0.03 µM	0.21 µM
